Reference: the NIST ThermoML archive (doi:10.1021/acs.jced.5b00348)
Several values for one entry are separate records, joined by “and”; a condition that tells them apart may be missing. Equal values may be shown once.

Settings: for vapor or sublimation pressure: Closed cell (Static) method

FC(F)(F)/C=C/Cl [(E)-1-chloro-3,3,3-trifluoroprop-1-ene]
Settings	mass density [kg/m3]	speed of sound
215.01 K, 1815.3 kPa, Liquid	1449.31	–
220 K, 1921.7 kPa, Liquid	1439.12	–
220 K, 8321.7 kPa, Liquid	1447.77	–
225 K, 8257.8 kPa, Liquid	1437.64	–
230 K, 14558 kPa, Liquid	1436.27	–
235 K, 1363.6 kPa, Liquid	1406.94	–
235 K, 5155.5 kPa, Liquid	1412.84	–
235 K, 10102 kPa, Liquid	1420.19	–
235 K, 15131 kPa, Liquid	1427.32	–
235 K, 20809 kPa, Liquid	1434.98	–
240 K, 7088 kPa, Liquid	1405.56	–
245 K, 12803 kPa, Liquid	1404.29	–
250 K, 18468 kPa, Liquid	1403.09	–
255 K, 1176.9 kPa, Liquid	1363.85	–
255 K, 5115 kPa, Liquid	1371.16	–
255 K, 10377 kPa, Liquid	1380.36	–
255 K, 15392 kPa, Liquid	1388.62	–
255 K, 21124 kPa, Liquid	1397.53	–
255 K, 24078 kPa, Liquid	1401.93	–
260 K, 6173.2 kPa, Liquid	1362.59	–
265 K, 11152 kPa, Liquid	1361.41	–
270 K, 16100 kPa, Liquid	1360.29	–
275 K, 1267.3 kPa, Liquid	1319.85	–
275 K, 4966.8 kPa, Liquid	1328.13	–
275 K, 10048 kPa, Liquid	1338.72	–
275 K, 15054 kPa, Liquid	1348.44	–
275 K, 21020 kPa, Liquid	1359.23	–
280 K, 5624.6 kPa, Liquid	1318.7	–
285 K, 9970.2 kPa, Liquid	1317.63	–
289.99 K, 80.81 kPa, Gas	–	137.76 m/s
290.01 K, 14296 kPa, Liquid	1316.62	–
290.06 K, 80.8 kPa, Gas	–	137.77 m/s
295 K, 1205.6 kPa, Liquid	1273.49	–
295 K, 5284 kPa, Liquid	1284.64	–
295 K, 10000 kPa, Liquid	1296.45	–
295 K, 14695 kPa, Liquid	1307.26	–
295 K, 18582 kPa, Liquid	1315.63	–
299.99 K, 4671.2 kPa, Liquid	1271.6	–
300 K, 4941.7 kPa, Liquid	1272.36	–
300.01 K, 79.96 kPa, Gas	–	140.51 m/s
300.01 K, 80 kPa, Gas	–	140.52 m/s
300.01 K, 113.38 kPa, Gas	–	138.9 m/s
300.02 K, 113.38 kPa, Gas	–	138.9 m/s
305 K, 8702.1 kPa, Liquid	1271.4	–
309.99 K, 12156 kPa, Liquid	1269.71	–
309.99 K, 12442 kPa, Liquid	1270.47	–
314.99 K, 8185.4 kPa, Liquid	1247.49	–
314.99 K, 16168 kPa, Liquid	1269.57	–
315 K, 1207.6 kPa, Liquid	1224.52	–
315 K, 4179.3 kPa, Liquid	1234.82	–
315 K, 11929 kPa, Liquid	1258.3	–
319.59 K, 129.53 kPa, Gas	–	143.66 m/s
319.59 K, 183.14 kPa, Gas	–	141.46 m/s
319.6 K, 129.45 kPa, Gas	–	143.67 m/s
319.6 K, 150.69 kPa, Gas	–	142.81 m/s
319.6 K, 150.7 kPa, Gas	–	142.81 m/s
319.6 K, 183.09 kPa, Gas	–	141.46 m/s
319.6 K, 183.12 kPa, Gas	–	141.46 m/s
319.61 K, 68.35 kPa, Gas	–	146.03 m/s
319.61 K, 129.45 kPa, Gas	–	143.67 m/s
319.61 K, 215.09 kPa, Gas	–	140.12 m/s
319.61 K, 215.18 kPa, Gas	–	140.11 m/s
319.61 K, 215.23 kPa, Gas	–	140.11 m/s
319.62 K, 68.35 kPa, Gas	–	146.03 m/s
319.99 K, 4450.8 kPa, Liquid	1223.61	–
319.99 K, 19560 kPa, Liquid	1267.92	–
325 K, 7686.4 kPa, Liquid	1222.74	–
330 K, 10903 kPa, Liquid	1221.9	–
335.01 K, 948 kPa, Liquid	1170.3	–
335.01 K, 4081.7 kPa, Liquid	1184.44	–
335.01 K, 7985.8 kPa, Liquid	1199.99	–
335.01 K, 11894 kPa, Liquid	1213.83	–
335.01 K, 14112 kPa, Liquid	1221.09	–
339.43 K, 353.83 kPa, Gas	–	140.91 m/s
339.44 K, 145.11 kPa, Gas	–	148.28 m/s
339.44 K, 267.82 kPa, Gas	–	144.07 m/s
339.44 K, 267.83 kPa, Gas	–	144.07 m/s
339.44 K, 267.89 kPa, Gas	–	144.07 m/s
339.44 K, 353.63 kPa, Gas	–	140.92 m/s
339.44 K, 353.76 kPa, Gas	–	140.91 m/s
339.45 K, 144.98 kPa, Gas	–	148.29 m/s
339.45 K, 145.24 kPa, Gas	–	148.28 m/s
339.45 K, 267.8 kPa, Gas	–	144.08 m/s
339.45 K, 267.82 kPa, Gas	–	144.08 m/s
339.47 K, 199.9 kPa, Gas	–	146.45 m/s
339.47 K, 268.41 kPa, Gas	–	144.06 m/s
339.47 K, 321.82 kPa, Gas	–	142.12 m/s
339.47 K, 447.53 kPa, Gas	–	137.13 m/s
339.48 K, 199.88 kPa, Gas	–	146.45 m/s
339.48 K, 268.39 kPa, Gas	–	144.06 m/s
339.48 K, 268.43 kPa, Gas	–	144.06 m/s
339.48 K, 322.03 kPa, Gas	–	142.12 m/s
339.48 K, 374.34 kPa, Gas	–	140.12 m/s
339.48 K, 447.52 kPa, Gas	–	137.13 m/s
339.48 K, 447.57 kPa, Gas	–	137.13 m/s
339.49 K, 85.51 kPa, Gas	–	150.21 m/s
339.49 K, 85.52 kPa, Gas	–	150.22 m/s
339.49 K, 322.01 kPa, Gas	–	142.12 m/s
340 K, 3674.5 kPa, Liquid	1169.48	–
345.01 K, 6402.5 kPa, Liquid	1168.7	–
349.98 K, 366.9 kPa, Gas	17.985	–
350 K, 9119.8 kPa, Liquid	1167.95	–
355.01 K, 990.8 kPa, Liquid	1111.28	–
355.01 K, 2028.5 kPa, Liquid	1117.99	–
355.01 K, 3980.1 kPa, Liquid	1129.59	–
355.01 K, 6026.4 kPa, Liquid	1140.59	–
355.01 K, 8135 kPa, Liquid	1150.94	–
355.01 K, 9972.9 kPa, Liquid	1159.29	–
355.01 K, 11833 kPa, Liquid	1167.22	–
359.44 K, 307.1 kPa, Gas	–	148.62 m/s
359.44 K, 400.17 kPa, Gas	–	145.8 m/s
359.44 K, 400.23 kPa, Gas	–	145.8 m/s
359.44 K, 500.35 kPa, Gas	–	142.58 m/s
359.44 K, 596.92 kPa, Gas	–	139.26 m/s
359.45 K, 307.02 kPa, Gas	–	148.63 m/s
359.45 K, 307.4 kPa, Gas	–	148.62 m/s
359.45 K, 400.08 kPa, Gas	–	145.81 m/s
359.45 K, 500.35 kPa, Gas	–	142.58 m/s and 142.58 m/s
359.45 K, 596.94 kPa, Gas	–	139.26 m/s
359.45 K, 596.95 kPa, Gas	–	139.26 m/s
359.98 K, 499.3 kPa, Gas	24.386	–
360 K, 387.4 kPa, Gas	18.379	–
360 K, 916.6 kPa, Fluid (supercritical or subcritical phases)	1094.63	–
360 K, 3249 kPa, Liquid	1110.57	–
364 K, 2629 kPa, Fluid (supercritical or subcritical phases)	1094.08	–
365.01 K, 5510.3 kPa, Liquid	1109.87	–
368 K, 1297.9 kPa, Fluid (supercritical or subcritical phases)	1070.52	–
368 K, 4345.4 kPa, Fluid (supercritical or subcritical phases)	1093.56	–
370 K, 523.6 kPa, Gas	24.719	–
370.01 K, 524 kPa, Gas	24.736	–
370.01 K, 7766.7 kPa, Liquid	1109.2	–
370.02 K, 407.6 kPa, Gas	18.73	–
372 K, 2880.6 kPa, Fluid (supercritical or subcritical phases)	1070	–
375.01 K, 2017.2 kPa, Liquid	1052.12	–
375.01 K, 4033.7 kPa, Liquid	1069.29	–
375.01 K, 5918 kPa, Liquid	1083.16	–
375.01 K, 7957.7 kPa, Liquid	1096.46	–
375.01 K, 10021 kPa, Liquid	1108.53	–
376 K, 1522.5 kPa, Fluid (supercritical or subcritical phases)	1043.77	–
376 K, 4464.2 kPa, Fluid (supercritical or subcritical phases)	1069.49	–
379.77 K, 81.05 kPa, Gas	–	159.47 m/s and 159.47 m/s
379.77 K, 81.06 kPa, Gas	–	159.48 m/s
379.77 K, 201.41 kPa, Gas	–	156.72 m/s

Liquid
Settings	vapor or sublimation pressure [kPa]
280.01 K	65.1
290.01 K	96.5
300 K	139
310.01 K	194.9
320.02 K	267.1
330.01 K	357.9
340.01 K	470.7
350.02 K	608.7
360.02 K	775
370.03 K	973.2
